Assay results taken from patent USRE38424E1 (The United States of America as represented by the …, priority 1994, dated 2004).
Several values for one entry are separate records, joined by “and”; a condition that tells them apart may be missing. Equal entries are not always repeated. Where two headings read alike, the source gives them in different places.

Tests used:
[1] = tested on: epithelial ovarian cancer; assay: Phase I taxol dose escalation with G-CSF support: disease response; format: in vivo, human
Description: Patients with histologically proven epithelial ovarian cancer with bidimensionally measurable disease were candidates for the study.
All patients received subsequent cycles of therapy on the general medical oncology in-patient ward.
A G-CSF dose of 10 μg/kg/day was used. […] This was determined by checking WBC and platelet counts on a twice weekly basis.
Patients who had normalization of serum CA-125 levels and complete resolution of all assessable disease confirmed at peritoneoscopy Were assessed as having a clinical complete response to therapy (CCR). A partial response (PR) was designated for individuals experiencing a greater than 50% reduction in the sum of the products of the greatest perpendicular diameters of all measurable lesions that lasted at least one month. A minor response (MR) was defined as a greater than 25% but less than 50% reduction in the sum of the products of the greatest perpendicular diameters of all measurable lesions lasting at least one month. Patients with a less than 25% reduction in tumor volume after two cycles of therapy were considered to be nonresponders and were taken off therapy. Patients who experienced greater than 25% reduction in tumor volume and/or a more than 50% reduction in CA-125 level received two cycles beyond maximal response. Patients with CCR received two cycles beyond peritoneoscopy.

[2] = tested on: recurrent advanced stage epithelial ovarian cancer; assay: Phase II dose intense taxol with G-CSF support: disease response and survival; format: in vivo, human
Text: A total of 47 patients were included in this study. All patients had recurrent advanced stage epithelial ovarian cancer confirmed on histologic review at the Laboratory of Pathology, National Cancer Institute (NCI). Borderline, mixed, and germ cell histologies were excluded.
A complete response (CR) was defined as patients having a complete resolution of disease as determined by both physical and radiographic examination as well as normalization of CA-125 lasting at least 4 weeks. A partial response (PR) patient was defined as having a greater than 50% reduction in the sum of the products of bidimensional measurements of all sites of disease as determined by both physical and radiographic analysis which lasted at least 4 weeks, and wherein no development of new lesions was observed. A minor response (MR) patient was defined as having greater than 25% but less than 50% reduction in the sum of the products of the perpendicular diameters of all measurable lesions and wherein no new sites of disease were observed. A stable disease (SD) was defined as patients having less than a 25% increase or less than a 25% reduction in sum of the product of the perpendicular diameters of all measurable lesions in response to therapy, without development of new lesions, for at least 4 weeks. Progressive disease (PD) was defined as patients having an increase of at least 25% in the sum of the products of the perpendicular diameters of all measurable lesions and/or the development of new lesions.
CA-125 levels were followed in all patients but were not used to define a patient's response except in one situation.

ovarian cancer [3] = assay: Published studies of taxol without G-CSF: response rate; format: in vivo, human; details: 33 of 110 patients
Text: This agent is derived from the bark of the Western Yew tree, taxus brevifolia (Chabner, PPO Update, 5 (9), 1-10 (1991); Rowinsky et al., J. Nat'Cancer Inst., 82, 1247-1259 (1990)).

[4] = in vivo
Description: All toxicities were graded according to the NCI-CTEP criteria, with the exception of peripheral neuropathy which was graded as described previously herein.
Dose limiting toxicity (DLT) was defined as any of the following criteria occurring in two of three patients treated at a given dose level: (1) reversible non-hematologic toxicity of at least grade 3; (2) irreversible non-hematologic toxicity of at least grade 2; or (3) the persistence of a nadir with an absolute granulocyte count of less than 500 cells/mm^3 or platelet count of less than 25,000/mm^3 for five days or more.

ovarian cancer [5] = details: cited from earlier work; for Response rate: taxol without G-CSF
[6] = in vivo; cited from earlier work
[7] = Nerve conduction studies in two patients with grade 3 polyneuropathy; details: for MAP Amplitude Percent Decrement / MAP Amplitude Lowest on Taxol: Motor; for SAP Amplitude Percent Decrement / SAP Amplitude Lowest on Taxol: Sensory
Description: In two of these patients who developed clinical evidence of neuropathy, the studies were repeated on three occasions in case 1 and once in case 2. In all 12 patients, maximal motor and sensory conduction velocities and response amplitudes were recorded for the median or ulnar nerve in the upper limb and for the peroneal and sural nerves in the lower limb.

[8] = Totals, all dose levels 170-300 mg/m^2, 14 patients assessable
[9] = Totals, all dose levels 170-300 mg/m^2, 14 patients assessable, listed as taxol
[10] = taxol 170 mg/m^2, 2 patients assessable
[11] = taxol 200 mg/m^2, 3 patients assessable
[12] = taxol 250 mg/m^2, 6 patients assessable
[13] = taxol 300 mg/m^2, 3 patients assessable
[14] = dose intense taxol with G-CSF, 44 assessable patients
[15] = dose intense taxol with G-CSF, 44 assessable patients, listed as taxol
[16] = nineteen patients treated until CR or progression

Compound: CC(=O)O[C@H]1C(=O)[C@@]2(C)[C@H]([C@H](OC(=O)c3ccccc3)[C@]3(O)C[C@H](OC(=O)[C@H](O)[C@@H](NC(=O)c4ccccc4)c4ccccc4)C(C)=C1C3(C)C)[C@]1(OC(C)=O)CO[C@@H]1C[C@@H]2O [Taxol, taxol]
- Patients with an objective response to therapy ([1]; Five of 14 assessable patients, all dose levels): 36%
- No. CCR (clinical complete response) [1, 8]: 1
- No. MR (minor response) [1, 8]: 5
- No. NR (no response; progressive disease on therapy) [1, 8]: 4
- No. PR (partial response) [1, 8]: 4
- No. CCR (clinical complete response) [1, 9]: one
- No. MR (minor response) [1, 9]: Five
- No. NR (no response; progressive disease on therapy) [1, 9]: Four
- No. PR (partial response) [1, 9]: four
- Reductions in tumor mass in patients with a minor response ([1]; five patients): 30% to 46%
- Response durations for PR ([1]; phase I, individual PR patients): 30 weeks and ≥ 25 weeks and ≥ 23 weeks and 11 weeks
- Response duration for CCR ([1]; phase I, the one CCR patient): ≥ 30 weeks
- No. NR (no response) [1, 10]: 1
- No. PR (partial response) [1, 10]: 1
- No. CCR (clinical complete response) [1, 11]: 1
- No. MR (minor response) [1, 11]: 1
- No. NR (no response) [1, 11]: 1
- No. MR (minor response) [1, 12]: 3
- No. NR (no response) [1, 12]: 2
- No. PR (partial response) [1, 12]: 2
- No. MR (minor response) [1, 13]: 1
- No. PR (partial response) [1, 13]: 2
- Overall objective response rate ([2]; 21/44, 95% CI: 33-63%, taxol 250 mg/m^2/21 days with G-CSF): 48%
- Survival at one year ([2]; 95% confidence interval, 25-67%): 45.3%
- Median survival time ([2]; Kaplan-Meier, phase II): 11.5 months
- CR, % of Cohort [2, 14]: 14%
- CR, No. of Patients [2, 14]: 6
- MR, % of Cohort [2, 14]: 11%
- MR, No. of Patients [2, 14]: 5
- NR, % of Cohort [2, 14]: 25%
- NR, No. of Patients [2, 14]: 11
- PR, % of Cohort [2, 14]: 34%
- PR, No. of Patients [2, 14]: 15
- CR, No. of Patients [2, 15]: Six
- MR, No. of Patients [2, 15]: five
- PR, No. of Patients [2, 15]: Fifteen
- Median number of cycles required to reach an objective response [2, 16]: four
- Number of cycles required to reach an objective response, range [2, 16]: two to eight
- Objective response rate ([2]; taxol about 250 mg/m^2/ 21 days): about 50%
- Increase in the response rate versus standard dose ([2]; taxol about 250 mg/m^2/ 21 days vs standard dose): 67%
- Response rate, three combined studies (ovarian cancer [3]): 30%
- Dose at which dose limiting toxicity (DLT) was reached ([4]; female, human): 300 mg/m2/21 days
- Duration of granulocytopenia occurring in spite of G-CSF support ([4]; female, human): less than 5 days
- Persistence of neurologic symptoms beyond the peak ([4]; female, human): 1 to 2 weeks
- Persistence of symptoms of grade 3 neuropathy ([4]; female, human): up to 6 months
- Time of nadir heart rate into therapy, range ([4]; female, human): 1 to 21 h
- Mean nadir heart rate (±SEM) ([4]; female, human, 1 cycle): 60±11 bpm
- Nadir heart rate, range ([4]; female, human, 1 cycle): 46-84 bpm
- Number of individuals whose heart rate fell below 60 bpm ([4]; female, human, 1 cycle): 10
- Mean nadir heart rate ([4]; female, human, 2 cycle): 61±8 bpm
- Nadir heart rate, range ([4]; female, human, 2 cycle): 46-75 bpm
- Number of individuals whose heart rate fell below 60 bpm ([4]; female, human, 2 cycle): 6
- Alopecia and grade 1 to 2 myalgias observed [4]: all patients
- Patients in whom mucositis was observed [4]: two
- Patients with peripheral neuropathy of grade 3 [4]: three
- Objective response rate (ovarian cancer [5]; "standard" dose of taxol (about 135 mg/m^2/ 21 days)): about 30%
- Response rate (ovarian cancer [5]; Einzig et al.): 21%
- Response rate (ovarian cancer [5]; Gynecologic Oncology Group (Thigpen et al.)): 36%
- Response rate (ovarian cancer [5]; McGuire et al.): 33%
- Patients with objective responses (ovarian cancer [5]; taxol 110 to 200 mg/m^2, cisplatin-sensitive and cisplatin-resistant advanced stage epithelial ovarian cancer): about 30%
- Taxol dosage level above which severe neurotoxicity (peripheral neuropathy) is experienced [6]: above 300 mg/m^2/ 21 days
- MAP Amplitude Percent Decrement ([7]; Median nerve, case 2): None
- MAP Amplitude Lowest on Taxol ([7]; Median nerve, case 2, control 10.5 mV): 10.8 mV
- MAP Amplitude Percent Decrement ([7]; Peroneal nerve, case 1): 49%
- MAP Amplitude Lowest on Taxol ([7]; Peroneal nerve, case 1, control 3.9 mV): 1.9 mV
- MAP Amplitude Percent Decrement ([7]; Peroneal nerve, case 2): None
- MAP Amplitude Lowest on Taxol ([7]; Peroneal nerve, case 2, control 2.7 mV): 2.7 mV
- MAP Amplitude Percent Decrement ([7]; Ulnar nerve, case 1): None
- MAP Amplitude Lowest on Taxol ([7]; Ulnar nerve, case 1, control 6.9 mV): 7.1 mV
- SAP Amplitude Percent Decrement ([7]; Median nerve, case 2): 13%
- SAP Amplitude Lowest on Taxol ([7]; Median nerve, case 2, control 69 μV): 60 μV
- SAP Amplitude Percent Decrement ([7]; Sural nerve, case 1): 75%
- SAP Amplitude Lowest on Taxol ([7]; Sural nerve, case 1, control 8 μV): 2 μV
- SAP Amplitude Percent Decrement ([7]; Sural nerve, case 2): 44%
- SAP Amplitude Lowest on Taxol ([7]; Sural nerve, case 2, control 32 μV): 18 μV
- SAP Amplitude Percent Decrement ([7]; Ulnar nerve, case 1): 62%
- SAP Amplitude Lowest on Taxol ([7]; Ulnar nerve, case 1, control 19 μV): 6 μV
